Earlier results in PMC3387528 (Journal of the American Chemical Society, 2011).

What was measured:
[1] = test system: ApA (adenylyl(3′-5′)adenosine); details: substrate ApA; no coreagents; pH 7.2, 30 °C; ref [28]
[2] = test system: dsDNA; details: substrate dsDNA; no coreagents; pH 7.0, 37 °C; ref [22]

k2, expressed as kcat/KM [2]	SMILES	k2, second-order rate constant [1] [M⁻¹ s⁻¹]
–	[Cl][Lu]([Cl])[Cl] [LuCl3]	0.633
108 ^b M^−1 min^−1	[Eu+3] [Eu^3+]	–
